Reference: US20200268804A1, “METHODS AND COMPOSITIONS TO MAINTAIN STEM CELL QUIESCENCE” (The Board of Trustees of the Leland Stanford Junior …, priority 2016, published 2020)

Tested on: quiescent MuSCs
Test: Q-RT-PCR screening of candidate molecules for promotion of MuSC quiescence
Type: cell-based, mouse
Settings: 500 quiescent MuSCs cultured 2.5 days with the molecule; gene expression signature
From the text: FIG. 8. Screening of molecules titrated at different concentrations. Heat map analysis of gene expression profiles obtained from MuSCs cultured in different concentrations of candidate molecules. In 96 well plates, 500 MuSCs were directly isolated by FACS and cultured in the presence of the candidate molecules titrated at different concentrations. After 2.5 days, cells were collected for combinatorial Q-RT-PCR to screen for the conditions that result mostly closely resemble freshly isolated MuSCs based on the gene expression profiles. A heat map for absolute deviations from expression levels of freshly isolated quiescent MuSCs (QSC) is shown. On the X axis, the molecules tested and the different dilutions employed from the working concentrations are indicated as in FIG. 16. On the Y axis the names of the genes that were tested are listed. The gene names were organized in general functional groups. Each functional group is based on the main function and role in MuSCs.
Knowing that quiescent MuSCs have a unique transcriptional signature, we employed combinatorial QRT-PCR to screen for molecules that, when added to the medium, would promote MuSC quiescence. […]
Single Cell Q-RT-PCR. […] Biomark data was analyzed using Q-RT-PCR Analysis software (Fluidigm). […] For each amplicon, a limit of detection (LOD) was determined by running 10-fold serial dilutions of embryonic cDNA in 6 replicates. […]

Nc1nc(Nc2ccc(S(N)(=O)=O)cc2)nn1C(=O)c1c(F)cccc1F [JMJ-7706621] was tested, and the quiescence-promoting activity was “novel quiescence-promoting activity”.
